Assays:
[1] = system: MCF-7 cells; assay: Cell growth assay, cell counting on Coulter Counter ZM; type: cell-based, human
Protocol: The MCF-7 tumor line is a line of estrogen-sensitive epithelial cells originating from pleural metastases of an infiltrating ductule breast adenocarcinoma. They are cultured in Dulbecco's Modified Eagle Medium (DMEM), supplemented with 10% of fetal calf serum (FCS), 1% of glutamine and 1% of sodium pyruvate. The cells are stored in cryotubes in frozen form in liquid nitrogen. The cryotubes are partially thawed in a water bath at 37° C. 2 ml of complete culture medium are added and the cell suspension is then mixed. Culture flasks (COSTAR® T25) are prepared with culture medium beforehand. The cell suspension is added to the flasks and placed in an incubator at 37° C. with 5% of CO2.
Cells sampled in the exponential growth phase are seeded in 24-well plates in a proportion of 15000 cells per ml and per well, this being in a DMEM medium supplemented with 10% FCS, 1% of sodium pyruvate and 1% of glutamine.
After incubation for 24 hours, the various concentrations of products to be tested are added in the proportion of 4 wells per concentration. These products are diluted in a DMEM medium containing 2% of FCS, 1% of sodium pyruvate and 1% of glutamine, so as to obtain the desired concentrations. The negative control is prepared without the addition of product.
After incubation for 72 hours, the cells are detached and then counted using a Coulter Counter ZM® set on the parameters predefined for MCF-7 cells. The diameter (threshold) of detection is 5 for an attenuation of 32. The latter determines the number of particles of desired diameter contained in the sample. By taking into account the dilution made, the number of cells per ml of initial cell suspension is determined from this value.
%I=[1−(net increase in treated cells/net increase in untreated cells)]×100
The net increase in untreated cells corresponds to the number of cells contained in the control wells (DMEM medium containing 2% FCS) subtracted with the number of cells at D0 (number of cells at the time the products are added to the wells). […]

[2] = system: MCF-7 cells; assay: MTT growth assay; type: cell-based, human
Protocol: MTT (3-(4,5-dimethylthiazol-2-yl)-2,5-diphenyl-tetrazolium bromide) has the property that it can be reduced in alkaline medium, thus giving a colored compound, blue formazan. Mitochondria, by virtue of their membrane-bound dehydrogenases, are capable of carrying out this reduction. As a result, the number of functional mitochondria, and indirectly the number of live cells, can be quantified as a function of the intensity of the coloration.
(§1) Cells sampled in the exponential growth phase are seeded in 96-well plates in a proportion of 5 000 cells per 200 μl, this being in a DMEM medium supplemented with 2% of FCS, 1% of glutamine and 1% of sodium pyruvate. After incubation for 24 hours, the various concentrations of products to be tested are added in a proportion of 3 wells per concentration. A negative control is prepared without the addition of product.
(§2) After incubation for 72 hours, the cells are washed twice with a buffered saline solution and then 100 μl of MTT are added to each well. After 4 hours of incubation, 100 μl of DMSO are added to the wells before reading the plate 570 nm using a plate reader.
The percentage inhibition I is determined using the equation previously described. The net increase in untreated cells this time corresponds to the cell density contained in the control wells minus that of D0. […]

[3] = system: MCF-7ras cells; assay: MTT growth assay with isobolic combination index; type: cell-based, human; settings: for NaPA Bc / NaPA Be: used alone
Protocol: as §1, §2
The percentage inhibition I is determined using the equation previously described. The net increase in untreated cells this time corresponds to the cell density contained in the control wells minus that of D0. As regards the net increase in treated cells, it corresponds to the treated cell density at D72 subtracted with that of D0.
MCF-7 cells transfected with the Ha-ras oncogene (MCF-7ras cells) were cultured in DMEM medium supplemented with 10% of FCS, 2 mM of L-glutamine, 1 mM of sodium pyruvate, 50 units/ml of penicillin and 50 μg/ml of streptomycin, at a temperature of 37° C. and in a humid atmosphere with 5% of CO2.
This was carried out in 96-well microplates under the same conditions as those given above in example 17.
In this example, the effects of the following products, alone or in combination, at various concentrations, were studied on MCF-7ras cell proliferation after incubation for 72 hours:
The percentage inhibition I was calculated as described above in example 17.
The effect of synergy between the dextrans DMCB7 or LS4 DMCB or LS17 and NaPA was calculated using the following isobolic equation (T. Mosmann, J. Immunol. Methods, 1983, 65, 55-63): […]
in which Ac and Bc correspond, respectively, to the concentration of dextran derivative and NaPA used in combination, and Ae and Be correspond to the concentration of each of these two compounds used alone and inducing the same effect; D is the combination index and Dm is the mean combination index. When D or Dm is less than 1, then the combination of the two products has a synergistic effect.
When the concentration of dextran derivative used alone (Ae), making it possible to obtain a percentage inhibition close to that which is obtained when the dextran derivative is used in combination with NaPA, is very high and such that it cannot be determined precisely, then the ratio Ac/Ae tends toward zero and, consequently, D=Bc/Be. Such concentrations of dextran derivatives (Ae) have been indicated in tables II, III and IV below as simply being greater than the concentration given for Ac.
Each experiment was repeated 3 times so as to be able to calculate the statistical significance (P) of the combination index (D or Dm) compared to the additive combination index for the effects (D=1) using the Student's t test.

[4] = system: MCF-7ras cells; assay: Cell cycle analysis (BrdU/propidium iodide, FACScan); type: cell-based, human; settings: NaPA alone 10 mM, 48 hours
Protocol: To analyze the cell cycle, the cells were seeded in plates in a proportion of […] and per well in DMEM medium supplemented with 2% of FCS. After culturing for 24 hours, the various tested products were added.
After 72 hours, the MCF-7ras cells were incubated in the presence of BrdU for 4 hours. The cells were then washed with PBS buffer and fixed with 70% ethanol. […] The cells were then centrifuged and resuspended in a staining solution containing […] of propidium iodide (Boehringer Mannheim) for 10 min. The stained cells are then analyzed with a FACScan (Coulter).
Analysis of the distribution of MCF-7ras cells treated with NaPA alone (10 mM), the dextran LS4 DMCB alone (18.5 mM) and a combination thereof (NaPA: 10 mM; LS4 DMCB: 18.5 mM) in the various phases of the cell cycle was carried out after 48 hours of treatment.

[5] = system: MCF-7ras tumors; assay: Antitumor effect in vivo, tumors induced by inoculation of MCF-7ras cells in athymic mice; settings: NaPA 40 mg/kg, injected twice a week, after 7 weeks of treatment; P=0.049
Protocol: Fifty 3-week-old female athymic mice from the Laboratoire Harlan (Gannat, France) were kept in a temperature-controlled room and subjected to a cycle of light/dark alternating every 12 hours.
Cells of the MCF-7ras tumor line as described above in example 17 were cultured in a DMEM medium supplemented with 10% of FCS until 80% confluency was reached. After centrifugation, the cells were resuspended in DMEM supplemented with 10% of FCS.
Each mouse was then inoculated subcutaneously with these cells, in the proximity of the mammary gland, in a proportion of 5×10^6 cells per animal.
The volume of the tumors (V) was calculated in the following way:
V=(4/3)π(r1)^2)r2); r1 representing the smallest radius of the tumor and r2 the largest radius of the tumor.
Four weeks after inoculation, solutions of NaPA (40 mg/kg) or of dextran LS4 DMCB (150 mg/kg) or of a combination of NaPA (40 mg/kg) and dextran LS4 DMCB (150 mg/kg), prepared in 0.1 ml of sodium chloride, were injected into the mice, twice a week, for 7 weeks for the solutions of NaPA alone and of dextran LS4 DMCB alone. The injections of the combination of NaPA and dextran LS4 DMCB were stopped after six weeks.
For each solution tested, 10 mice chosen randomly from the 50 mice initially inoculated were subjected to the treatment. […]
The volume of each tumor was measured once a week. […]

[6] = system: 1205LU human melanoma cells; assay: Antitumor effect in vivo, 1205LU human melanoma in athymic mice
Protocol: A group of 14 female athymic mice were subcutaneously inoculated, according to the protocol described above in example 17, with 1205LU human melanoma cells, in a proportion of 10^6 cells per animal.
For a period of five weeks, and at a rate of twice a week, a first group of 4 mice were given an injection of 100 μl of sodium chloride so as to serve as a control group, a second group of 4 mice were given an injection of LS17-NaPAC at a dose of 60 mg/kg/100 μl, and a third group of 6 mice were given an injection of NaPA at a dose of 6.9 mg/kg/100 μl.
The volume of each tumor was measured before the first injection and then once a week for the five weeks of treatment. It was calculated according to the equation defined above in example 17.
Furthermore, at the end of treatment, the mice were sacrificed so as to be able to determine the mass of each of the tumors. […] The treatment with NaPA alone at a dose of 6.9 mg/kg therefore appears to be nonsignificant, contrary to that with LS17-NaPAC at an equivalent dose of 60 mg/kg (p<0.005).

[7] = system: HUVEC cells; assay: HUVEC cell proliferation (MTT), antiangiogenic activity in vitro; type: cell-based; settings: tested alone at concentrations equivalent to LS17-NaPAC, 72 hours
Protocol: Immortalized healthy endothelial cells (HUVEC) were seeded in a proportion of 10000 cells per well and per 100 μl of DMEM medium supplemented with 2% of FCS, in 96-well microplates (COSTAR®). The number of cells was determined after having prepared a standard range.
After culturing for 24 hours, the HUVEC cells were incubated with the various concentrations of the products to be tested prepared in DMEM medium containing 2% of FCS. The absorbance at the time the products were added was measured and compared to the standard range, so as to determine the number of cells.
After culturing for 72 hours, the cell supernatant is removed and 1 wash with PBS buffer containing calcium and magnesium is carried out. 100 μl of a solution of MTT is then added and the cells are incubated for 4 hours. After 4 hours of incubation, the MTT is removed and the crystals which have formed are dissolved with DMSO for 10 minutes with agitation. Absorbance is measured at 570 nm.
The concentration of 10 μg/ml of LS17-NaPAC tested is compared to a concentration of NaPA alone of 1.3216 μg/ml or to a concentration of 8.7 μg/ml of LS17-DMCB alone.

**Q.** Which results are given for `O=C([O-])Cc1ccccc1.[Na+]` [NaPA, sodium phenylacetate]?
**A.** IC50 ([1]; Homo sapiens, MCF7, 72 h, read-out: IC50 (minimum dose causing arrest of proliferation of 50% of cells)): 5 mM; inhibition of cell proliferation ([1]; concentrations greater than 30 mM, reflects cytotoxic effect): exceeds 100%; concentration of NaPA alone giving this inhibition ([1]; same inhibition as maximum effect of NaPAC MF6): 50 mM; effect on MCF-7 cells ([2]; concentrations less than 1 mM, MTT): does not appear to have a significant effect; concentration of free NaPA giving this same inhibition ([2]; same inhibition (40 to 50%) as the combination): 5 mM; inhibition of MCF-7ras cell proliferation ([3]; NaPA alone at 30 and 40 mM, 72 h): 70%; NaPA Bc ([3]; same effect as DMCB7 0.05 mM + NaPA 5 mM (10% inhibition)): 1 mM; NaPA Bc ([3]; same effect as DMCB7 0.3 mM + NaPA 5 mM (20% inhibition)): 5 mM; NaPA Bc ([3]; same effect as DMCB7 1 mM + NaPA 5 mM (38% inhibition)): 10.7 mM; NaPA Bc ([3]; same effect as DMCB7 1.27 mM + NaPA 5 mM (42% inhibition)): 12 mM; NaPA Bc ([3]; same effect as DMCB7 1.7 mM + NaPA 5 mM (45% inhibition)): 13 mM; NaPA Bc ([3]; same effect as DMCB7 2 mM + NaPA 5 mM (50% inhibition)): 20 mM; NaPA Bc ([3]; same effect as DMCB7 5 mM + NaPA 5 mM (60% inhibition)): 29 mM; NaPA Bc ([3]; same effect as DMCB7 7 mM + NaPA 5 mM (70% inhibition)): 36 mM; NaPA Bc ([3]; same effect as LS4 3.7 mM + NaPA 0.75 mM (51.4% inhibition)): 22 mM; NaPA Bc ([3]; same effect as LS4 7.4 mM + NaPA 1.5 mM (54.8% inhibition)): 23 mM; NaPA Bc ([3]; same effect as LS4 14.8 mM + NaPA 3 mM (55% inhibition)): 23.3 mM; NaPA Bc ([3]; same effect as LS4 18.5 mM + NaPA 4 mM (60.2% inhibition)): 29.3 mM; NaPA Be ([3]; same effect as LS17 1.53 mM + NaPA 0.5 mM (0% inhibition)): 0 mM; NaPA Be ([3]; same effect as LS17 3 mM + NaPA 1 mM (16% inhibition)): 0.76 mM; NaPA Be ([3]; same effect as LS17 6 mM + NaPA 2 mM (17.3% inhibition)): 0.83 mM; NaPA Be ([3]; same effect as LS17 12 mM + NaPA 4 mM (17.3% inhibition)): 0.83 mM; distribution of cells in the phases of the cell cycle [4]: blocking of the cells in the G0/G1 phase; inhibition of tumor cell growth [5]: 59%; mass of the tumors vs untreated mice ([6]; NaPA 6.9 mg/kg, end of treatment): no significant difference; effect on tumor growth (tumor volume) ([6]; NaPA 6.9 mg/kg/100 μl, twice a week, five weeks): does not appear to have a significant effect; inhibitory effect on HUVEC cell proliferation [7]: do not appear to exhibit an inhibitory effect
